Columns and labels:
[1] = test system: Donor 3 GMA T-cell lines (165-B5G, 165-C4G, 165-C5G, 165-E9G, 165-F5G, 165-F10G); experiment: MHC DR restriction testing (ATP proliferation with autologous and partially HLA-DR matched APC), Donor 3 GMA T-cell lines; format: cell-based, human; settings: 20 μg/mL
Experimental: MHC DR restriction testing of cell lines was carried out by measuring the proliferation response of the cell lines as described above in the presence of an array of APC selected based on the known HLA-DR loci of the original PBMC donor for the cell line tested, including autologous APC (B-LCL). The donors used are described in Table 2.
To define the MHC molecule used to present antigen to GA specific T cell lines, GA specific responses were measured in the presence of autologous APC and in the presence of APC matching one of the T cell donor's HLA-DR alleles. Therefore at least 3 APC were used in each experiment: autologous APC, APC matching DR allele 1 but not allele 2 and a third APC matching allele 2 but not allele 1. In some experiments a fourth APC B-LCL was used. A no antigen negative control was used. APC were inactivated by incubation with 50 ug/mL mitomycin C. Following inactivation, cells were washed three times to remove mitomycin C and suspended in X-VIVO 15 medium at 1×10^6 cells per mL. GA was added to the cell suspension to a final concentration of 20-60 μg/mL. The cells were incubated with antigen for 1 hour at 37° C. to allow antigen uptake and binding. The cell suspension was then centrifuged to pellet the cells and the cell pellet was washed once with medium. APC were adjusted to 2×10^5 cells per mL in X-VIVO 15 medium and added to opaque 96-well plates at 100 μL per well. T-cell suspensions of 2-4×10^5 cells per mL (unless otherwise specified) were added to the 96-well plates at 100 μL per well and the cultures incubated 4 days before measuring cell numbers using CellTiter Glo® (to evaluate proliferation).
Alternatively, APC were not pulsed. Instead, each well contained 10 ug/mL antigen, 50 μl APC and 100 μL of T cells.
After incubating for 4 days at 37° C. (5% CO2), 100 μL were removed from each well, combined with 100 μL CellTiterGlo reagent, and luminescence was measured using a Packard Fusion. Results were expressed in relative light units (RLU).
As described in the Methods, T-cell lines were tested for MHC restriction by measuring proliferation following incubation with APC. Mitomycin-treated autologous APC, and test APC, e.g., from donors having at least one HLA-DR match with the original PBMC donor were employed. The values in the data tables below are in RLU.
Donor 3 T-cell line 165-B5G was assayed for proliferation, using mitomycin-treated APC from Donors 3, 5, and 6 that had been incubated in the presence or the absence of 20 μg/mL GMA. T-cell line 165-B5G had been restimulated six times (not including the initial stimulation) with antigen before the MHC restriction assay was carried out. The data, shown in Table 62 and FIG. 9A, indicate that 165-B5G is restricted by HLA-DRβ1*11.
Donor 3 T-cell line 165-C4G was assayed for proliferation, using mitomycin-treated APC from Donors 3, 5, and 7 that had been incubated in the presence or the absence of 20 μg/mL GMA. T-cell line 165-C4G had been restimulated five times (not including the initial stimulation) with antigen before the MHC restriction assay was carried out. The data, shown in Table 63 and FIG. 9B, indicate that 165-C4G is restricted by HLA-DRβ1*11.
Donor 3 T-cell line 165-05G was assayed for proliferation, using mitomycin-treated APC from Donors 3, 5, and 6 that had been incubated in the presence or the absence of 20 μg/mL GMA. T-cell line 165-05G had been restimulated four times (not including the initial stimulation) with antigen before the MHC restriction assay was carried out. The data, shown in Table 64 and FIG. 10A, indicate that 165-05G is restricted by HLA-DRβ1*1501.
Donor 3 T-cell line 165-E9G was assayed for proliferation, using mitomycin-treated APC from Donors 3, 5, and 6 that had been incubated in the presence or the absence of 20 μg/mL GMA. T-cell line 165-E9G had been restimulated four times (not including the initial stimulation) with antigen before the MHC restriction assay was carried out. […]

[2] = test system: Donor 1 Human T-Cell Lines (GMA-stimulated); experiment: BrdU uptake proliferation assay, Donor 1 T-cell lines initially stimulated with GMA; format: cell-based; settings: 10 μg/mL GMA
Experimental: Proliferation was evaluated by measuring ATP content using a luminescent method (CellTiter Glo Luminescent Cell Viability Assay, Promega, Madison, Wis., cat. #G7571) or by measuring BrdU uptake by ELISA (Millipore cat. #2752), in both cases following kit instructions. A split well format was used. Cells in each well were resuspended and 65 μl transferred to the wells of each of two new U-bottom 96-well plates, to generate the replicate plates. For the initial screening, the original 96-well plate received mitomycin-treated autologous PBMC as APC plus 10 μg/mL antigen (GA). A first replicate plate received 100 μl., mitomycin-treated PBMC alone (2×10^5), and no antigen, and a second replicate plate received 100 μL mitomycin-treated PBMC plus GA at a final concentration of 10 μg/mL. Therefore, all three plates received autologous APC (PBMC) treated with mitomycin C to prevent cell division. […] The latter two plates were incubated for 3 days at 37° C., 6% CO2 before adding CellTiter Glo or BrdU and measuring signal. IL-2 was added at 10 U/mL to the original 96-well plate for expansion on Day 17. For subsequent screenings, mitomycin-treated EBV-transformed autologous B-LCL (2×10^5 to 5×10^5 cells/mL) were used as APC.
GMA-responsive cell lines were obtained from Donor 1 PBMC as described above (2×10^5 cells/well, i.e., 1×10^6 cells/mL, plated with 10 μg/mL GMA; IL-2 added on Days 3 and 7). In a split well assay begun on Day 12 the cells were stimulated with 10 μg/mL GMA and 1×10^5 mitomycin-treated autologous PBMC as APC. BrdU was added on Day 3, cells were incubated 4.5 hours and fixed, and uptake measured. […] These cell lines each produced an increase in signal of at least 50% relative to (no antigen) control.

Substance: glatiramer acetate [GMA]
- Proliferation with antigen-incubated APC ([1]; T-cell line 165-B5G, B-LCL Donor 3 (Autologous) DRβ1*1501/DRβ1*11): 4776 RLU
- Proliferation with antigen-incubated APC ([1]; T-cell line 165-B5G, B-LCL Donor 5 DRβ1*01/DRβ1*11): 5450 RLU
- Proliferation with antigen-incubated APC ([1]; T-cell line 165-B5G, B-LCL Donor 6 DRβ1*1501/DRβ1*13): 2360 RLU
- Proliferation with antigen-incubated APC ([1]; T-cell line 165-C4G, B-LCL Donor 3 (Autologous) DRβ1*1501/DRβ1*11): 48711 RLU
- Proliferation with antigen-incubated APC ([1]; T-cell line 165-C4G, B-LCL Donor 5 DRβ1*01/DRβ1*11): 41833 RLU
- Proliferation with antigen-incubated APC ([1]; T-cell line 165-C4G, B-LCL Donor 7 DRβ1*1501/DRβ1*03): 4870 RLU
- Proliferation with antigen-incubated APC ([1]; T-cell line 165-C5G, B-LCL Donor 3 (Autologous) DRβ1*1501/DRβ1*11): 16461 RLU
- Proliferation with antigen-incubated APC ([1]; T-cell line 165-C5G, B-LCL Donor 5 DRβ1*01/DRβ1*11): 9825 RLU
- Proliferation with antigen-incubated APC ([1]; T-cell line 165-C5G, B-LCL Donor 6 DRβ1*1501/DRβ1*13): 31717 RLU
- Proliferation with antigen-incubated APC ([1]; T-cell line 165-E9G, B-LCL Donor 3 (Autologous) DRβ1*1501/DRβ1*11): 5452 RLU
- Proliferation with antigen-incubated APC ([1]; T-cell line 165-E9G, B-LCL Donor 5 DRβ1*01/DRβ1*11): 9514 RLU
- Proliferation with antigen-incubated APC ([1]; T-cell line 165-E9G, B-LCL Donor 6 DRβ1*1501/DRβ1*13): 1442 RLU
- Proliferation with antigen-incubated APC ([1]; T-cell line 165-F5G, B-LCL Donor 3 (Autologous) DRβ1*1501/DRβ1*11): 2862 RLU
- Proliferation with antigen-incubated APC ([1]; T-cell line 165-F5G, B-LCL Donor 5 DRβ1*01/DRβ1*11): 3971 RLU
- Proliferation with antigen-incubated APC ([1]; T-cell line 165-F5G, B-LCL Donor 6 DRβ1*1501/DRβ1*13): 1424 RLU
- Proliferation with antigen-incubated APC ([1]; T-cell line 165-F10G, B-LCL Donor 3 (Autologous) DRβ1*1501/DRβ1*11): 120946 RLU
- Proliferation with antigen-incubated APC ([1]; T-cell line 165-F10G, B-LCL Donor 5 DRβ1*01/DRβ1*11): 6221 RLU
- Proliferation with antigen-incubated APC ([1]; T-cell line 165-F10G, B-LCL Donor 7 DRβ1*1501/DRβ1*03): 151115 RLU
- BrdU uptake ([2]; 222-AC11, control 0.680): 1.244 OD450
- BrdU uptake ([2]; 222-AF2, control 0.454): 1.119 OD450
- BrdU uptake ([2]; 222-AF5, control 0.606): 1.133 OD450
- BrdU uptake ([2]; 222-AG11, control 0.359): 0.875 OD450
- BrdU uptake ([2]; 222-AG12, control 0.448): 0.949 OD450
- BrdU uptake ([2]; 222-BA4, control 0.370): 0.603 OD450
- BrdU uptake ([2]; 222-BA11, control 0.255): 0.783 OD450
- BrdU uptake ([2]; 222-BC11, control 0.499): 0.921 OD450
- increase in signal relative to (no antigen) control ([2]; eight Donor 1 cell lines of Table 4): at least 50%
